The record followed here is US7041785B1, “B1-bradykinin receptor antagonists and use thereof” (Université de Sherbrooke, priority 1996, dated 2006).

Molecules are shown by their SMILES. Non-standard residues stand in square brackets, D forms with d. Residues, ends and D or L forms follow the SMILES beside them. Tyr(3,5-I2) = N[C@@H](Cc1cc(I)c(O)c(I)c1)C(=O)O; Oic = O=C(O)[C@@H]1C[C@@H]2CCCC[C@@H]2N1; d2Nal = N[C@H](Cc1ccc2ccccc2c1)C(=O)O; Hyp = O=C(O)[C@@H]1C[C@@H](O)CN1; dTic = O=C(O)[C@H]1Cc2ccccc2CN1; 2Thi = N[C@@H](Cc1cccs1)C(=O)O; Ahx = NCCCCCC(=O)O; Sar = CNCC(=O)O

What all share (test): cell-based
One test addresses T1, B1 receptor (Oryctolagus cuniculus, UniProt P48748).
T1 sequence (P48748 1-352): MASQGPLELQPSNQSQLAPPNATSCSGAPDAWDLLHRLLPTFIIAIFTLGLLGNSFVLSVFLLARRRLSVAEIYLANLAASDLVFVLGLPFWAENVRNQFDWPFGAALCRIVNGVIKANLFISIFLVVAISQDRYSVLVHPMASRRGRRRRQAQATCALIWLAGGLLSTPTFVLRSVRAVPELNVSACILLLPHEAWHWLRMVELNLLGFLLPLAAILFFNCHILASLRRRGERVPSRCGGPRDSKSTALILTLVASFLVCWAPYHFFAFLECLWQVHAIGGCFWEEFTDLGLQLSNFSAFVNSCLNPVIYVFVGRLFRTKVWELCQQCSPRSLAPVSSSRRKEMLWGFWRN
Particulars: Rb.A. pA2, apparent affinity as antagonist vs desArg9BK; antagonist applied 10 min before; Inactive = no detectable antagonistic effect at ≦ 10 μg/ml. The procedure, abridged: (§1)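 Isolated rabbit jugular vein (captopril 1 μmol/L), guinea pig ileum, endothelium-free rabbit aorta and human umbilical vein, in Krebs at 37 °C, with isometric tension recorded. Agonism was tested at 10 μg/mL.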

For test [1], the target named is T2, B2 receptor (Oryctolagus cuniculus, UniProt Q28642).
T2 sequence (Q28642 1-367): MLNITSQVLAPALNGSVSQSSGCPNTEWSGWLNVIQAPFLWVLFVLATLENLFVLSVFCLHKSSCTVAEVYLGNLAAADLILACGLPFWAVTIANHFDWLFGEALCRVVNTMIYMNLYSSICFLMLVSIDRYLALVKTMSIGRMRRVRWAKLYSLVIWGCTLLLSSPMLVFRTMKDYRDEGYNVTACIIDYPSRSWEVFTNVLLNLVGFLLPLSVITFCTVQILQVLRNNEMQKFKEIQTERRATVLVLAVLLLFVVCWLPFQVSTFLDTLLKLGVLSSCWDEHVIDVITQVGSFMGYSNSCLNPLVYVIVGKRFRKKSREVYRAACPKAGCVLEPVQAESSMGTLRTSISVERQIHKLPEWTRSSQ
The procedure, abridged: as §1

Test [2] concerns the target T3, B2 receptor (Cavia porcellus, UniProt O70526).
T3 sequence (O70526 1-372): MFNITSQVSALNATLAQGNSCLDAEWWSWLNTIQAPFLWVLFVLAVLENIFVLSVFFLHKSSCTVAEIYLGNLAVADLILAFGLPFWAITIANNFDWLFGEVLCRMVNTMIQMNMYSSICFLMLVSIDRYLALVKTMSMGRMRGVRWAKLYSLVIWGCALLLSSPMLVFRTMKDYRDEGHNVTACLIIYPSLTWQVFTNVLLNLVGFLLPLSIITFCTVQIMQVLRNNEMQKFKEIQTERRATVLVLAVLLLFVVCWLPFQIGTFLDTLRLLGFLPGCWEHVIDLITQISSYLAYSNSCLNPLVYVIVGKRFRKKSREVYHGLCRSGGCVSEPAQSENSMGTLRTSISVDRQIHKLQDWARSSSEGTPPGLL
Particulars: for G.P.I. pA2: vs BK, Inactive = no detectable antagonistic effect at ≦ 10 μg/ml, F.ag. full agonist, P.ag. partial agonist. The procedure, abridged: as §1

As for `CC[C@H](C)[C@H](NC(=O)[C@@H](Cc1ccc2ccccc2c1)NC(=O)[C@H](CO)NC(=O)[C@H](Cc1ccccc1)NC(=O)CNC(=O)[C@@H]1CCCN1C(=O)[C@@H]1CCCN1C(=O)[C@H](CCCNC(=N)N)NC(=O)[C@H](CCCCN)NC(=O)CCCCCNC(=O)[C@H](Cc1ccc(O)cc1)NC(=O)CNC)C(=O)O` [Compound 29, SarTyrεAhxLys(D-βNal^7, Ile^8)desArg^9BK] (H-[Sar]Y[Ahx]KRPPGFS[d2Nal]I-OH; N-terminus and C-terminus assumed), the Kb at B1 receptor was 3.31 nM; on B2 receptor [1] it was 6310 nM. Further, on B2 receptor [2], the “G.P.I. pA2” value is on record as “Inactive”.
For the molecule `CC[C@H](C)[C@H](NC(=O)[C@@H](Cc1ccc2ccccc2c1)NC(=O)[C@H](CO)NC(=O)[C@H](Cc1ccccc1)NC(=O)CNC(=O)[C@@H]1CCCN1C(=O)[C@@H]1CCCN1C(=O)[C@H](CCCNC(=N)N)NC(=O)[C@H](CCCCN)NC(=O)CCCCCNC(=O)[C@H](Cc1cc(I)c(O)c(I)c1)NC(=O)CNC)C(=O)O` [Compound 30, SarTyr(3,5-I)εAhxLys(D-βNal^7, Ile^8)desArg^9BK] (H-[Sar][Tyr(3,5-I2)][Ahx]KRPPGFS[d2Nal]I-OH; N-terminus and C-terminus assumed), the Kb on B1 receptor was 7.24 nM; at B2 receptor [1] it was 7410 nM. On B2 receptor [2], the “G.P.I. pA2” value was “Inactive”.
`N=C(N)NCCC[C@@H](N)C(=O)N[C@@H](CCCNC(=N)N)C(=O)N1CCC[C@H]1C(=O)N1C[C@H](O)C[C@H]1C(=O)NCC(=O)N[C@@H](Cc1cccs1)C(=O)N[C@@H](CO)C(=O)N1Cc2ccccc2C[C@@H]1C(=O)N1[C@H](C(=O)O)C[C@@H]2CCCC[C@@H]21` [Compound 31, D-Arg(Hyp^3, Thi^5, D-Tic^7, Oic^8)desArg^9BK, reference compound] (H-[dR]RP[Hyp]G[2Thi]S[dTic][Oic]-OH; N-terminus and C-terminus assumed): the Kb was 158 nM at B1 receptor, 41.7 nM on B2 receptor [1] and > 7590 nM on B2 receptor [2].
